Data as given in patent US6566096B2, “Mammalian EDG-7 receptor homologs” (NPS Allelix Corp., priority 1997, dated 2003).
Several values for one entry are separate records, joined by “and”; a condition that tells them apart may be missing. Identical values can stand only once.

Molecular target: T1, HEDG-7 receptor (Homo sapiens, UniProt O95977, A140V/I378S)
T1 construct: it was desirable to isolate a full-length cDNA clone from a human source; expressed in transfected cells; host or cells: 293-EBNA cells (Invitrogen, Cat. R620-07), transiently transfected with pc3-hedg7#M10 (pcDNA3.1) and a 2x SRE-luciferase reporter
T1 sequence (O95977 1-384 A140V/I378S): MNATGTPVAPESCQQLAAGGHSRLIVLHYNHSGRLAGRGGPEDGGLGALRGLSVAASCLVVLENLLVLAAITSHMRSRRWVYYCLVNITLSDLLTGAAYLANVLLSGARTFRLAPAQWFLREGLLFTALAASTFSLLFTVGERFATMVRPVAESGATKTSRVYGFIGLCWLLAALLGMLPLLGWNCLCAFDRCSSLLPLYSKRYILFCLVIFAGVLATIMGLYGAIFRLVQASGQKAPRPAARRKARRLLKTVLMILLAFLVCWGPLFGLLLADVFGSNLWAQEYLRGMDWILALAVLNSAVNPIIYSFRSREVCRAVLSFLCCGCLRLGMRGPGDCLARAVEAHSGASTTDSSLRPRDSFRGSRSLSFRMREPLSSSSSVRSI
Assay: SRE-luciferase reporter gene response in 293-EBNA cells transfected with pc3-hedg7#M10
Assay type: cell-based
Conditions: for Max. Fold: maximal luciferase fold response after subtracting endogenous response in pcDNA3-transfected cells; for Max. Fold / EMax (Percent) / HEDG7 activation (conclusion from dose response): 6 hr treatment; for EMax (Percent): relative efficacy; for EMax (Percent) / HEDG7 activation (conclusion from dose response) / SRE response (agonist specificity) / Rank (EMax): 293-EBNA cells transfected with pc3-hedg7#M10; for HEDG-7 agonist activity: summary statement in the description; for HEDG7 activation (conclusion from dose response): various concentrations; for SRE response (agonist specificity): 5 μM compound, serum-free medium; for Rank (EMax): rank of efficacy among sphingolipids tested
Method: Miniprep DNA from 4 clones was tested by cotransfection into 293-EBNA cells (Invitrogen, Cat. R620-07) with a 2× SRE-Luciferase reporter gene constructed in-house. We previously determined that these cells are an ideal expression host for edg receptors that respond to sphingolipids, since only a single edg gene is expressed (the LPA receptor subtype […], see U.S. Ser. No. 08/997,803), under normal culture conditions. […] Thus, the low endogenous expression of previously identified S1P receptor subtypes (edg-1, edg-3, edg-4/H218) and hedg7 (determined here) permits overexpression and functional analysis of these receptors in a relatively unresponsive cell background. From this preliminary cotransfection experiment, the expression clone pC3-hEdg7#M10 was chosen for further analysis. The nucleotide sequence and amino acid sequence of the hedg-7 sequence from the pC3-hEdg7#M10 clone are shown in FIG. 1B and FIG. 2B, respectively. Furthermore, an alignment of the hedg-7 amino acid sequence from the pC3-hEdg7#M10 clone and from the genomic DNA sequence is shown in FIG. 3B.
Transient transfection protocol for 293-EBNA:
1) 100 mm plates of 293-EBNA with a confluency of −80% were used for transfection.
2) SRE Reporter Gene Cotransfection: Expression plasmid ([…]) and reporter plasmid (2× SREtk-p4Luc-zeo; 0.5 μg) DNA samples were combined and diluted in 750 μl of DMEM/F12 (serum-free media) and 20 μl Plus Reagent (Lipofectamine Plus Kit, Life Technologies Cat. 10964-013), and incubated at room temperature for 15 min.
3) 30 μl Lipofectamine Reagent (Lipofectamine Plus Kit) was diluted in 750 μl DMEM/F12. The diluted Lipofectamine was then combined with the DNA/Plus mixture and incubated at RT for 15 min.
4) The 293-EBNA plates were washed once with PBS, and 5 ml DMEM/F12 was added to each plate.
5) DNA/Plus/Lipofectamine mixture was added to each plate of 293-EBNA cells. The plates were left for 3 hr at 37° C. in a 5% CO2 incubator.
6) The transfection medium was replaced with DMEM/F12 containing 10% FBS to recover overnight.
2) Transfected cells were harvested by trypsinization and 20,000 cells per well were plated in 96-well Blackview plates coated with poly D-lysine (Becton Dickinson Labware, Cat. 40640). Medium was DMEM/F12 plus 0.15% FBS. No. cells were plated in the outside wells of the 96-well plate. Cells were returned to the incubator for 48 hr.
1) Media was removed and cells treated with compounds diluted in serum-free DMEM/F12 media and the following treatments: a) Untreated: Serum-free DMEM/F12; b) 10 μM S1P in DMEM/F12 medium.
2) The cells were treated 5 hr in the 37° C. incubator.
3) Luclite kit (Packard; Cat. 6016911) was used for luciferase assay. All reagents were brought to room temperature before use.
4) Media was removed from each well. 50 μl 0.5M HEPES pH 7.8, 1 mM MgCl2, 1 mM CaCl2 was added to all wells of 96-well plate.
5) Luclite substrate was made up and 50 μl substrate was added to each well as specified in the kit.
6) Plates were incubated at room temperature for 30 min.
7) After incubation, plates were counted in a 12-detector Packard Top Count on a program without dark delay.
To determine the agonist specificity of HEDG-7, 293-EBNA cells were transfected with pc3-hedg7#M10, serum-deprived as described above, and treated in serum-free medium with 5 μM concentrations of SPC, S1P, LPA, lysophosphatiylcholine (LPC), edelfosine, psychosine, anandamide or 2-arachidonylglycerol. Control cells were treated with serum-free medium alone, and the SRE response was expressed as fold induction relative to this control. After 5 hr of treatment, luciferase activity was measured.
Transfection of a HEDG7 expression vector pc3-hedg7#M10 was carried out using Lipofectamine Plus (Life Technologies, Cat. 10964-013) according to manufacturer's instructions. The next day, transfected cells were harvested by trypsinization and replated at 30,000 cells per well in poly-(D)lysine-coated 96-well plates in medium containing 0.15% FBS. […]

Compound | Max. Fold [Fold] | EMax (Percent) [%] | HEDG-7 agonist activity | HEDG7 activation (conclusion from dose response) | SRE response (agonist specificity) (5 hr) | SRE-Luciferase reporter response (10 μM S1P treatment, 5 hr, EBNA-293 cells transfected with pc3-hedg7#M10 and 2× SRE-Luciferase reporter, 2 independent experiments) | Rank (EMax)
CCCCCCCCCCCCC/C=C/[C@@H](O)C(N)CO[C@@H]1O[C@H](CO)[C@@H](O)[C@H](O)[C@@H]1O (stereo partly drawn) [Glucospychosine, glucopsychosine] | 1.00 | 0 | do not act as HEDG-7 agonists | failed to activate HEDG7 at nontoxic concentrations | – | – | –
CCCCCCCCCCCCC/C=C/[C@@H](O)[C@@H](N)CO[C@@H]1O[C@H](CO)[C@H](O)[C@H](O)[C@H]1O [Psychosine, psychosine] | 1.00 | 0 | do not act as HEDG-7 agonists | failed to activate HEDG7 at nontoxic concentrations | – | – | –
CCCCCCCCCCCCC/C=C/[C@@H](O)[C@@H](N)COP(=O)(O)O [S1P] | 3.59 | 100 | agonists for HEDG-7 | full agonists | robustly induced expression of the SRE reporter gene | 5.3 fold and 6.5 fold | 1
CCCCCCCCCCCCC/C=C/[C@@H](O)[C@@H](N)COP(=O)([O-])OCC[N+](C)(C)C [SPC] | 3.59 | 100 | agonists for HEDG-7 | full agonists | robustly induced expression of the SRE reporter gene | – | 1
CCCCC/C=C\C/C=C\C/C=C\C/C=C\CCCC(=O)NCCO [anadamide, anandamide] | – | – | do not act as HEDG-7 agonists | – | – | – | –
CCCCCCCCCCCCCCC[C@@H](O)[C@@H](N)COP(=O)(O)O [dihydro-S1P, dihydrosphingosine 1-phosphate] | – | – | do not act as HEDG-7 agonists | – | – | – | –
lysophosphatidylcholine [LPC] | – | – | – | – | failed to activate the SRE response | – | –
